Assay results from US7387800B2, “Sesquiterpenoid derivatives having adipocyte differentiation inhibitory effect” (Meiji Dairies Corporation, priority 2001, dated 2008).

Tested on: Mouse adipocyte precursors (3T3-L1)
Assay: Inhibition of insulin-induced adipocyte differentiation, acetic acid (14C-CH3COOH) incorporation activity as index
Assay type: cell-based
Conditions: 3T3-L1 differentiation into adipocytes; compound added with insulin; FIG. 4
Protocol: Whether Calea extract solution has an inhibitory activity on adipocyte differentiation induced by the addition of insulin was investigated. First, the aerial portion of Calea (170 g) was ground, and extracted by heated reflux using acetone (24 hours×2 times) to produce Calea extract solution. The extracted solution was filtered, and then concentrated under reduced pressure to yield a concentrated extract. Mouse adipocyte precursors (3T3-L1) obtained from Human Science Research Resources Bank was used as the adipocyte in the present experiment. Normal successive cultivation was performed using Dulbecco's modified Eagle MEM medium containing 10% calf serum (CS) at 37° C. in the presence of 5% CO2. […]
In the system where acetic acid incorporation activity was used as an index, first the cells were placed into a 24-well plate at a density of 4.2×10^4 cell/well. […] Using a liquid scintillation counter, radioactivity of the isopropanol fraction (adipose component) was measured. […] Then, protein quantification was performed according to the Bradford dye-binding method. […]

How did the “incorporation inhibitory activity (acetic acid incorporation), result in words” value turn out when `C=C(C)C(=O)O[C@H]1[C@H]2C(=C)C(=O)O[C@@H]2C[C@@H](C)[C@@H]2O[C@@H]2C(=O)[C@@](C)(O)[C@@H]1OC(=O)C(=C)C` [compound 6] was run?
Its value is “high incorporation inhibitory activity”.

Which “incorporation inhibitory activity (acetic acid incorporation), result in words” value does the source give for `C=C(C)C(=O)O[C@H]1[C@H]2C(=C)C(=O)O[C@@H]2C[C@@H](C)/C=C\C(=O)[C@@](C)(O)[C@@H]1OC(=O)C(=C)C` [compound 11] here?
Its value is “high incorporation inhibitory activity”.
